Measurements: patent US20070191453A1, “USE OF BENZO-HETEROARYL SULFAMIDE DERIVATIVES FOR THE TREATMENT OF SUBSTANCE ABUSE AND ADDICTION” (priority 2006, published 2007)

Tested on: selectively-bred alcohol preferring rats
Assay: Alcohol Preferring Rats In Vivo Model (two-bottle choice)
Set-up: species or system rat
Settings: for 6 hr Preference (alcohol preference) / 6 hr Ethanol (alcohol intake) / 24 hr Ethanol (alcohol intake) / 24 hr Preference (alcohol preference): mean ± SEM; for 6 hr Ethanol (alcohol intake): 6 h after treatment
Description: Adult male selectively-bred alcohol preferring rats (which are known in the art to be useful for the study of the effect of test compounds on voluntary alcohol intake) were grouped into three groups: vehicle and Compound #1 (50 and 100 mg/kg, p.o.). Rats were housed individually in wire mesh cages under a constant room temperature of 22±1° C. and 12:12 light-dark cycle (8:00-20:00, dark). The animals were fed Agway Prolab Rat/Mouse/Hamster 3000 formula and water ad libitum.
Alcohol intake was determined using the standard two-bottle choice method. Animals were first given free access to water in a graduated Richter tube for 2 days. Then they were given access to only a solution of 10% (v/v) ethanol for 3 consecutive days. During this period animals became accustomed to drinking from Richter tubes and to the taste and pharmacological effects of alcohol. Thereafter, they were given free access to both water and a solution of 10% alcohol for at least 4 consecutive weeks and throughout the study period. Rats had free access to food. Water and alcohol intake were recorded at 4, 6 and 24 hours after the treatment, whereas food intake was measured at 24 hour. Animals' body weight was measured every day.
After establishment of a stable baseline for alcohol, food, and water intake, rats were administered either vehicle or Compound #1 via oral gavage using a cross-over design with random assignment. To be able to compare the efficacy of these compounds on alcohol intake with an established FDA-approved drug, naltrexone, was included as a positive control. Same rats were given an oral dose of naltrexone (20 mg/kg). The interval between treatments was at least 3 days. Alcohol and water intake were recorded 4, 6 and 24 h after the drug administration and food intake was recorded at 24 hr. A total of 8-10 animals per group were used.
The results below are presented as means±SEM. Alcohol intake (g/kg) was calculated by multiplying the volume of alcohol consumed in ml by 10% and 0.7893 (ethanol density)/body weight in kg. Alcohol preference, expressed as percentage, was calculated as follows: (volume of alcohol consumed in ml/total fluid intake in ml)×100 (Rezvani and Grady, 1994; Rezvani et al., 1997). Statistical differences between drug-treated and control groups were determined by using ANOVA and Tukey Student's t test for multiple comparison.

SMILES	6 hr Preference (alcohol preference) (naltrexone 20 mg/kg oral) [%]	6 hr Ethanol (alcohol intake) (naltrexone 20 mg/kg oral) [g/kg]	24 hr Ethanol (alcohol intake) (naltrexone 20 mg/kg oral) [g/kg]	24 hr Preference (alcohol preference) (naltrexone 20 mg/kg oral) [%]	6 hr Preference (alcohol preference) (50 mg/kg p.o.) [%]	6 hr Ethanol (alcohol intake) (50 mg/kg p.o.) [g/kg]	24 hr Ethanol (alcohol intake) (50 mg/kg p.o.) [g/kg]	24 hr Preference (alcohol preference) (50 mg/kg p.o.) [%]	6 hr Preference (alcohol preference) (100 mg/kg p.o.) [%]	6 hr Ethanol (alcohol intake) (100 mg/kg p.o.) [g/kg]	24 hr Ethanol (alcohol intake) (100 mg/kg p.o.) [g/kg]	24 hr Preference (alcohol preference) (100 mg/kg p.o.) [%]	duration of reduction in ethanol consumption compared with naltrexone (in words) (100 mg/kg vs naltrexone 20 mg/kg)	effect on ethanol consumption (in words) (at 6 h (50 and 100 mg/kg; p<0.05) and 24 h (100 mg/kg; p<0.05) post-dosing)
O=C1CC[C@@]2(O)[C@H]3Cc4ccc(O)c5c4[C@@]2(CCN3CC2CC2)[C@H]1O5 [Naltrexone, naltrexone, reference compound]	64 ± 12	0.77 ± 0.24	4.48 ± 0.57	76 ± 9										
NS(=O)(=O)NCc1csc2ccccc12 [Compound #1, N-(benzo[b]thien-3-ylmethyl)-sulfamide]					71 ± 11	1.06 ± 0.25	4.48 ± 0.62	74 ± 9	67 ± 11	0.79 ± 0.24	4.08 ± 0.71	79 ± 9	longer lasting than naltrexone	decreased ethanol consumption
